Laboratory results taken from ChEMBL document CHEMBL2176960, “Mechanism-based inactivation (MBI) of cytochrome P450 enzymes: structure-activity relationships and discovery strategies to mitigate drug-drug interaction risks” (J Med Chem, 2012).

Tests used:
Homo sapiens [1] = species on record: Homo sapiens; test: Inhibition of CYP2B6 in human assessed as decrease of hydroxybupropion metabolite systemic exposure; type: ADME, organism-based; set-up: scale not given: the % may be the effect or the level left; details: in vivo
CYP2C19 = CYP2C19 (Homo sapiens, UniProt P33261); test: (§1) Time dependent inhibition of CYP2C19
Cytochrome P450 2C19 = Cytochrome P450 2C19 (Homo sapiens, UniProt P33261); test: as §1
Homo sapiens [2] = species on record: Homo sapiens; test: Inhibition of CYP2B6 in human assessed as increase of bupropion systemic exposure; type: ADME, organism-based; set-up: scale not given: the % may be the effect or the level left; details: in vivo
[3] = Lipophilicity, log D of the compound; type: physicochemical; details: octanol/water
CYP3A4 [4] = molecular target: T1, CYP3A4 (Homo sapiens, UniProt P08684); test: Inhibition of CYP3A4-mediated testosterone 6 beta hydroxylation in human liver microsome by Dixon plot analysis; type: ADME; details: liver microsomes, probe testosterone (6 beta-hydroxylation)
Cytochrome P450 3A4 [5] = molecular target: T2, Cytochrome P450 3A4 (Homo sapiens, UniProt P08684); test: Time dependent inhibition of CYP3A4-mediated testosterone-6-beta hydroxylation in human liver microsome; type: ADME
Cytochrome P450 3A4 [6] = molecular target: T2, Cytochrome P450 3A4; test: (§2) Time dependent inhibition of CYP3A4 in human liver microsomes; type: ADME, Microsome
CYP3A4 [7] = molecular target: T1, CYP3A4; test: as §2; type: ADME, Microsome; details: human, liver microsomes
Cytochrome P450 2C8 [8] = molecular target: T3, Cytochrome P450 2C8 (Homo sapiens, UniProt P10632); test: Reversible inhibition of CYP2C8 in human liver microsomes; type: ADME, Microsome
T3 sequence (P10632 whole entry): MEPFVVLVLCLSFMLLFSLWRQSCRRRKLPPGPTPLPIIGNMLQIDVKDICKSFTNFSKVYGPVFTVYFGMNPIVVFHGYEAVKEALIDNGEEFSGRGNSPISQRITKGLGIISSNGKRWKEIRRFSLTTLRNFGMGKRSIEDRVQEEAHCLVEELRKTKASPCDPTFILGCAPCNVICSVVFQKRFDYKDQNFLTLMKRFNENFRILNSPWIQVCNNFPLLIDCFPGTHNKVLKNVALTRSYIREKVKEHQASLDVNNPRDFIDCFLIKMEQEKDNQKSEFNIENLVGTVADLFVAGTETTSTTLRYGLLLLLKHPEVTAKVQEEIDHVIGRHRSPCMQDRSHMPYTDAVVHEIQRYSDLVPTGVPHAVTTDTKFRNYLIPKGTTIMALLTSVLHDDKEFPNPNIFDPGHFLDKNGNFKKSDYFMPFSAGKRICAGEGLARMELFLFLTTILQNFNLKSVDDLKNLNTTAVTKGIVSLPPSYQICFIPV

Cytochrome P450 2C9 = Cytochrome P450 2C9 (Homo sapiens, UniProt P11712); test: Reversible inhibition of CYP2C9 in human liver microsomes; type: ADME, Microsome
Cytochrome P450 2C8 [9] = molecular target: T3, Cytochrome P450 2C8; test: Inhibition of CYP2C8; type: ADME
CYP2C8 = molecular target: T4, CYP2C8 (Homo sapiens, UniProt P10632); test: (§3) Time dependent inhibition of CYP2C8 in human liver microsomes; type: ADME, Microsome; details: human, liver microsomes
T4 sequence (P10632 whole entry): T3 sequence (P10632 whole entry)

Cytochrome P450 2C8 [10] = molecular target: T3, Cytochrome P450 2C8; test: as §3; type: ADME, Microsome
Cytochrome P450 2C8 [11] = molecular target: T3, Cytochrome P450 2C8; test: Inhibition of CYP2C8 in human liver microsomes in presence of NADPH; type: ADME, Microsome
[12] = Oral bioavailability in human; type: ADME, organism-based; details: in vivo
[13] = Half life in human; type: ADME, organism-based; details: in vivo
Cytochrome P450 3A4 [14] = molecular target: T2, Cytochrome P450 3A4; test: (§4) Time dependent inhibition of CYP3A4; type: ADME
CYP3A4 [15] = molecular target: T1, CYP3A4; test: as §4; type: ADME
Cytochrome P450 3A4 [16] = molecular target: T2, Cytochrome P450 3A4; test: (§5) Inhibition of CYP3A4 in human liver microsomes in presence of NADPH; type: ADME, Microsome
CYP3A4 [17] = molecular target: T1, CYP3A4; test: as §5; type: ADME, Microsome; details: human, liver microsomes
[18] = Clearance in human; type: ADME, organism-based; details: in vivo

T2 sequence (P08684 whole entry): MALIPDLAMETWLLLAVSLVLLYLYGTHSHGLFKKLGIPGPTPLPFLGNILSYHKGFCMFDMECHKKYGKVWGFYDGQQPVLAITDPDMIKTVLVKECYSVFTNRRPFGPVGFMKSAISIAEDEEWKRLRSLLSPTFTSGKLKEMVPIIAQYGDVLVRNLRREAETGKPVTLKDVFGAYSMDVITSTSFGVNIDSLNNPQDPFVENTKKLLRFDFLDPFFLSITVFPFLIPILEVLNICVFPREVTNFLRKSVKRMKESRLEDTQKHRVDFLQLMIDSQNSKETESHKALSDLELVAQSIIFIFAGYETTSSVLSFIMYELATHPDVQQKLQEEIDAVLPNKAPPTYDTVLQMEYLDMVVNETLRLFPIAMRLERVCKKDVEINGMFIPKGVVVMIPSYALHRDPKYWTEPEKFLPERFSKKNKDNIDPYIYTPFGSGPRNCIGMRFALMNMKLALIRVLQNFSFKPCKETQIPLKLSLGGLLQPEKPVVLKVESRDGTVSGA
T1 sequence (P08684 whole entry): as above
Chain of CYP2C19 (P33261 whole entry): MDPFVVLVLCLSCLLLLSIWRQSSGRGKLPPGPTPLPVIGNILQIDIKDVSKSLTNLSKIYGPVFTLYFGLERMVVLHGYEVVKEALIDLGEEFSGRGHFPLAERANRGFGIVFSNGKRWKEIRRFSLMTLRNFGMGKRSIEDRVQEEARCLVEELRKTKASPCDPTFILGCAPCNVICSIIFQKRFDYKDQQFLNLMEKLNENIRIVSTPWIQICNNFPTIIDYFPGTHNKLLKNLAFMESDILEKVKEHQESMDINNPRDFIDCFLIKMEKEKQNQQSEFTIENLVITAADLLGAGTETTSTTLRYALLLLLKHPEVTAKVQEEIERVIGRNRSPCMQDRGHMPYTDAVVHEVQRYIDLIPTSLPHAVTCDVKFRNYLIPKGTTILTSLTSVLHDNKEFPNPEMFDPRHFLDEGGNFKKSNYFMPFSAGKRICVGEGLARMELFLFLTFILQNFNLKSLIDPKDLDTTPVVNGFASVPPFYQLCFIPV
Chain of Cytochrome P450 2C19 (P33261 whole entry): as above
Chain of Cytochrome P450 2C9 (P11712 whole entry): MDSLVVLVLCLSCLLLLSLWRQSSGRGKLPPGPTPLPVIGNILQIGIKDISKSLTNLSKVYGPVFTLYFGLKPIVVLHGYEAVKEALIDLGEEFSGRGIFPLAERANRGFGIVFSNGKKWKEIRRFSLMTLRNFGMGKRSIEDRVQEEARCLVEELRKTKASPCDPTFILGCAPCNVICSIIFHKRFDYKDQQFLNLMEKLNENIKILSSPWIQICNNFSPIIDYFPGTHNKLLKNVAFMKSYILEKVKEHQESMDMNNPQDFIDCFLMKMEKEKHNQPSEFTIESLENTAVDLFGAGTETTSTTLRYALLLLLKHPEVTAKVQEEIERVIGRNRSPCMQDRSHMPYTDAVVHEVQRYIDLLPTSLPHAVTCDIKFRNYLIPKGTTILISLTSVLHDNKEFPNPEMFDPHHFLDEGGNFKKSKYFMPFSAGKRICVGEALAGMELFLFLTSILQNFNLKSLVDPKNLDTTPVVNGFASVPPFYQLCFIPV

Question: For `COC(=O)[C@H](c1ccccc1Cl)N1CCc2sccc2C1` [CLOPIDOGREL], which Activity (Homo sapiens [1]) is on record?
Answer: The Activity was 52%.

Question: And the kinact (CYP2C19)?
Answer: The kinact was 0.000917 s⁻¹.

Question: What about the Ki (Cytochrome P450 2C19) of the same compound?
Answer: Its Ki is 14.3 µM.

Question: What about the Activity (Homo sapiens [2]) of the same compound?
Answer: Its Activity is 60%.

Question: For `O=c1n(CCCN2CCN(c3cccc(Cl)c3)CC2)nc2ccccn12` [TRAZODONE], which logD [3] is on record?
Answer: Its logD is 1.58.

Question: For `Clc1ccccc1CN1CCc2sccc2C1` [TICLOPIDINE], which Activity (Homo sapiens [1]) is on record?
Answer: The Activity was 84%.

Question: What about the Activity (Homo sapiens [2]) of the same compound?
Answer: The Activity was 85%.

Question: Which Activity (Homo sapiens [1]) does the source give for `CC(=O)Oc1cc2c(s1)CCN(C(C(=O)C1CC1)c1ccccc1F)C2` (stereo not given) here?
Answer: The Activity was 23%.

Question: What about the Activity (Homo sapiens [2]) of the same compound?
Answer: Its Activity is 18%.

Question: Which kinact (CYP3A4 [4]) does the source give for `CC(C)CN(C[C@@H](O)[C@H](Cc1ccccc1)NC(=O)O[C@H]1CCOC1)S(=O)(=O)c1ccc(N)cc1` here?
Answer: The kinact was 0.00983 s⁻¹.

Question: And the Ki (Cytochrome P450 3A4 [5])?
Answer: The Ki was 0.37 µM.

Question: With `CN(c1ncccc1CNc1nc(Nc2ccc3c(c2)CC(=O)N3)ncc1C(F)(F)F)S(C)(=O)=O` [PF-00562271] as the compound, how does the Ki (Cytochrome P450 3A4 [6]) read?
Answer: Its Ki is 12 µM.

Question: What about the kinact (CYP3A4 [7]) of the same compound?
Answer: The kinact was 0.00383 s⁻¹.

Question: For `Cc1ccc(C)c(OCCCC(C)(C)C(=O)O)c1` [GEMFIBROZIL], which IC50 (Cytochrome P450 2C8 [8]) is on record?
Answer: Its IC50 is 95 µM.

Question: And the IC50 (Cytochrome P450 2C9)?
Answer: Its IC50 is 9.6 µM.

Question: What about the IC50 (Cytochrome P450 2C8 [9]) of the same compound?
Answer: The IC50 was 28 µM.

Question: For `Cc1ccc(C)c(OCCCC(C)(C)C(=O)O[C@@H]2O[C@H](C(=O)O)[C@@H](O)[C@H](O)[C@H]2O)c1`, which kinact (CYP2C8) is on record?
Answer: Its kinact is 0.0035 s⁻¹.

Question: What about the Ki (Cytochrome P450 2C8 [10]) of the same compound?
Answer: Its Ki is 20 µM.

Question: And the IC50 (Cytochrome P450 2C8 [11])?
Answer: The IC50 was 1.8 µM.

Question: What about the IC50 (Cytochrome P450 2C8 [9]) of the same compound?
Answer: Its IC50 is 4.1 µM.

Question: With `CCc1nn(CCCN2CCN(c3cccc(Cl)c3)CC2)c(=O)n1CCOc1ccccc1` [NEFAZODONE] as the compound, how does the logD [3] read?
Answer: Its logD is 3.43.

Question: And the bioavailability [12]?
Answer: The bioavailability was 20%.

Question: What about the half-life [13] of the same compound?
Answer: The half-life was 1 h.

Question: Which results are given for `CC(C)(C)NC(=O)C1(C2CCCCC2)CCN(C(=O)[C@@H](Cc2ccc(Cl)cc2)NC(=O)[C@H]2CCc3ccccc3[C@H]2N)CC1`?
Answer: Ki (Cytochrome P450 3A4 [14]): 23 µM; kinact (CYP3A4 [15]): 0.00133 s⁻¹

Question: For `COc1cc(CC(=O)O)ccc1Oc1ccc2[nH]c(C)cc2c1NS(=O)(=O)c1ccc(Cl)cc1Cl`, which Ki (Cytochrome P450 3A4 [16]) is on record?
Answer: Its Ki is 18 µM.

Question: What about the kinact (CYP3A4 [17]) of the same compound?
Answer: The kinact was 0.00267 s⁻¹.

Question: For `O=C1CCc2ccc(OCCCCN3CCN(c4cccc(Cl)c4Cl)CC3)cc2N1` [ARIPIPRAZOLE], which clearance [18] is on record?
Answer: The clearance was 0.8 mL/min/kg.

Question: And the logD [3]?
Answer: Its logD is 5.54.

Question: And the bioavailability [12]?
Answer: Its bioavailability is 87%.
